# Measurements as given in patent US4696920A, “Certain 2-substituted 1,3-propylidenediphosphonate derivatives, pharmaceutical compositions containing them and their use as antihypertensive agents” (priority 1984, dated 1987).
# “Also recorded” adds a separate entry of the source.
# Key:
# [1] = test system: drug receptor sites associated with calcium channels; settings: known calcium antagonists; cited from earlier work
# [2] = test system: [^3 H]-PN-200 110 (dihydropyridine) binding site of calcium channel, rat brain membranes; test: [^3 H]-PN-200 110 binding to rat brain membranes; design: species or system rat (male Wistar); settings: for Specifically bound [^3 H]-PN-200 110 % of control value: compound concentration 1.0 μM; for Specifically bound [^3 H]-PN-200 110 % of control value / Bound ^3 H at 1.0 μM / Bound ^3 H at 0.1 μM: Table 1b; for Bound ^3 H at 1.0 μM / Bound ^3 H at 0.1 μM: ratio of [^3 H]-PN-200 110 bound at 1.0 and 0.1 μM compound
# Protocol: (§1) Diltiazem hydrochloride was a generous gift from Goedecke A. G.
# Water insoluble compounds were dissolved in absolute ethanol to give 10 mM or 2.5 mM stock solutions. Suitable dilutions were made in 50 mM Tris-HCl buffer (pH 7.4) containing 150 mM NaCl and 1 mM CaCl2. The ethanol concentration in the final assay never exceeded 0.1%.
# (§2) The purity of the radioligand and of the various agents tested was monitored by thin layer chromatography on silica gel plates.
# (§3) The following procedure was adapted from Bellemann et al (Proc. Nat. Acad. Sci. 80, 2356, 1983), and Gould et al (Proc. Nat. Acad. Sci. 79, 3656, 1982).
# (§4) Adult male Wistar rats weighing 250-300 g were anesthetized with carbon dioxide prior to decapitation. The brain was removed then immersed in ice-cold 0.32M sucrose and washed 2-3 times with fresh solution. Cerebral cortex was minced and homogenized (Potter-Elvehjem homogenizer) in 10 volumes of ice-cold sucrose solution. The homogenate was centrifuged (4° C.) at 1000×g for 15 minutes. The resulting supernatant was then centrifuged at 90000×g (30 minutes) and the pellet was washed twice with 20 ml ice-cold 50 mM Tris-HCl pH 7.4.
# (§5) The final pellet was resuspended in 50 mM Tris-HCl pH 7.4/150 mM NaCl/1 mM CaCl2 to give a protein concentration of 4 mg/ml.
# (§6) The membrane suspension was kept on ice until used. Binding assays were performed in subdued light to prevent dihydropyridine breakdown. Membrane protein (400 μg/tube) was incubated in 50 mM Tris-HCl buffer (pH 7.4)/150 mM NaCl/1 mM CaCl2 with the indicated concentrations of radioligand and test compounds or known calcium antagonists, in a total volume of 2 ml. After the indicated time intervals, the reaction was terminated by rapid filtration through Whatman GF/B glass fiber filters (2.4 cm diameter) on a Millipore filter holder. The assay tube was rinsed with 2 ml ice-cold 50 mM Tris-HCl pH (7.4) and the precipitate was further washed with 2×5 ml of the same buffer.
# (§7) Filters were dried under a heat lamp and were extracted with 10 ml of liquid scintillation cocktail (Toluene/Triton X-100, 2/1 containing 4 g Omnifluor/1) prior to tritium determination at 48% counting efficiency.
# (§8) Assays were performed in duplicate or triplicate.
# (§9) Data were expressed as percent specific [^3 H]-Nitrendipine binding relative to the established control value.
# (§10) Compound activity in the [^3 H]-Nitrendipine binding assay was evaluated by using the following criteria:
# (§11) 1. [^3 H]-Nitrendipine binding at 1.0 μM compound final concentration was either below 95% or above 105% of the control value determined in absence of compound.
# 2. The ratio obtained by dividing the amount of specifically found [^3 H]-Nitrendipine at 1.0 μM compound final concentration by the value obtained at 0.1 μM test compound, was smaller than 0.9 or greater than 1.1. This ratio is indicative of a dose response relationship within the compound concentration range tested, when the value differs appreciably from 1.0.
# Note: In some experiments [^3 H]-PN200 110, a new and commercially available specific dihydropyridine was used instead of [^3 H]-Nitrendipine.
# [3] = test system: mean blood pressure in rat; test: Acute intravenous hypotensive activity in anesthetized rats; assay type: in vivo, rat (male Wistar)
# Protocol: Male Wistar rats were anesthetized with Pentobarbital (Nembutal, 60 mg/kg i.p.) and heparinized (5 mg/kg i.p.). After tracheotomy the right carotid was cannulated (catheter PE 50); blood pressure was measured with a pressure transducer (Statham P 23 db) and recorded on a polygraph (Beckman).
# Animals received 0.5 and 1.5 mg/kg of the test compounds. Less than 100 μl of test compounds dissolved in 0.9% saline were injected in the jugular vein. Highly water insoluble compounds were suspended in 2% Tween-80. Injection of the vehicle alone had no detectable hypotensive effect.
# Results presented are expressed as percent decrease in initial mean blood pressure (Mean±SEM).
# [4] = test system: calcium channel binding site for [^3 H]-Nitrendipine (rat brain membranes); test: [^3 H]-Nitrendipine binding to rat brain membranes; design: species or system rat (male Wistar); settings: Table 1a; for Specifically bound [^3 H]-Nitrendipine % of control value: compound concentration 1.0 μM; for Bound ^3 H at 1.0 μM / Bound ^3 H at 0.1 μM: ratio of [^3 H]-Nitrendipine bound at 1.0 and 0.1 μM compound
# Protocol: as §1
# Suitable dilutions were made in 50 mM Tris-HCl buffer (pH 7.4) containing 150 mM NaCl and 1 mM CaCl2. The ethanol concentration in the final assay never exceeded 0.1%.
# as §2, §3, §4, §5, §6, §7, §8, §9, §10, §11
# 2. […] This ratio is indicative of a dose response relationship within the compound concentration range tested, when the value differs appreciably from 1.0.
# [5] = test system: rat trachea contraction induced by KCl depolarization; test: KCl-induced rat trachea contraction; design: species or system rat (male SHR, Okamoto-Aoki); settings: for activity at 1 µM: Rattus norvegicus, 40 min, read-out: Contraction (% max.)
# Protocol: Spontaneously hypertensive male rats (SHR) Okamoto-Aoki Strain, weighing 300-400 g were used in this study. They were killed by bleeding after Pentobarbital anesthesia (Nembutal, Abbott Co, 40 mg/kg). Their entire trachea was quickly removed and dissected free of fat and connective tissue in Krebs-Ringer solution. A strip (4 mm×40 mm), obtained by spirally cutting the trachea, was immediately suspended in a 50 ml Krebs-Ringer solution and continuously bubbled with a O2 /CO2 (95/5) mixture. Bath temperature was maintained at 37±1° C. The composition (mM) of the Krebs-Ringer solution modified by Nghiem, was as follows: NaCl, (118.0); KCl, (4.7); CaCl2, (2.5); MgCl2, (1.18); NaHCO3, (12.5); KH2 P04, (1.18); glucose, (5.5) in bidistilled water (pH 7.4). Each strip was equilibrated under initial tension (1.5-2 g) for 1-2 hours and the bath solution changed every 30 min. A contractile or relaxant response was isometrically measured with a force-displacement transducer (Ugo-Basile) and recorded on a polygraph (Beckman).
# After equilibration, KCl was added to the bath at 65 mM final concentration. This concentration produced maximum trachea contraction. Under these conditions, a plateau phase showing a tonic sustained contraction was reached within 30 minutes. Drugs were added 30 minutes after the plateau phase has been reached (final concentration=1.0 μM). […] Recordings of the residual trachea contraction were made 40 minutes after drug addition to the bathing fluid. The initial KCl induced contraction was taken as the maximum KCl response (100%). Results were expressed as % of maximal contraction. Nifedipine, Prenylamine, Flunarizine and Diltiazem were used as reference standards to validate this assay.
# All 1,3-diphosphonates and drugs were dissolved in saline (0.9% NaCl) except when water insoluble, then the compounds were dissolved in 2% ethanol. The final concentration of ethanol used has been shown not to interfere with the assay.
# Results are expressed as mean values±SEM, the Student's t-test was used for statistical analysis.
# [6] = Rattus norvegicus, iv, read-out: Decrease in mean blood pressure (% pretest)
compound,measurement,setting,value
COc1ccc(CCN(C)CCCC(C#N)(c2ccc(OC)c(OC)c2)C(C)C)cc1OC (stereo not drawn) [Verapamil],effect on [^3 H]-Nitrendipine binding (in words),[1],inhibitors; also recorded: reduce [^3 H]-Nitrendipine binding affinity
CCCCOP(=O)(CC(CCOc1ccc(-c2ccccc2)cc1)CP(=O)(OCCCC)OCCCC)OCCCC [Compound 100],Specifically bound [^3 H]-PN-200 110 % of control value,[2],38 % of control value
same,Bound ^3 H at 1.0 μM / Bound ^3 H at 0.1 μM,[2],0.504
CCOP(=O)(CC(CCOc1ccccc1)CP(=O)(OCC)OCC)OCC [Compound 33],inhibition in vivo at 0.5 mg/kg,[3]; [6],13.2%
same,inhibition in vivo at 1.5 mg/kg,[3]; [6],16 ± 0.6%
CCCCOP(=O)(CC(Cc1cc(OC)c(OC)c(OC)c1)CP(=O)(OCCCC)OCCCC)OCCCC [Compound 82],Specifically bound [^3 H]-Nitrendipine % of control value,[4],90 % of control value
same,Bound ^3 H at 1.0 μM / Bound ^3 H at 0.1 μM,[4],0.886
same,activity at 1 µM,[5],80 ± 4%
same,inhibition in vivo at 0.5 mg/kg,[3]; [6],40.1 ± 3.2%
same,hypotensive activity (in words),"[3]; acute i.v., Table 4",hypotensive activity superior to that of classical hypotensive drugs and of the calcium antagonists used as references
CCCCOP(=O)(CC(Cc1cnc(C)c2c1COC(C)(C)O2)CP(=O)(OCCCC)OCCCC)OCCCC [Compound 101],Specifically bound [^3 H]-PN-200 110 % of control value,[2],47 % of control value
same,Bound ^3 H at 1.0 μM / Bound ^3 H at 0.1 μM,[2],0.527
CCOP(=O)(CC(CCCc1ccccc1)CP(=O)(OCC)OCC)OCC [Compound 27],Specifically bound [^3 H]-Nitrendipine % of control value,[4],95 % of control value
same,Bound ^3 H at 1.0 μM / Bound ^3 H at 0.1 μM,[4],0.982
same,inhibition in vivo at 0.5 mg/kg,[3]; [6],25.6 ± 2.2%
same,inhibition in vivo at 1.5 mg/kg,[3]; [6],35 ± 4.7%
"CCCCOP(=O)(CC(Cc1cnc(C)c(O)c1CO)CP(=O)(OCCCC)OCCCC)OCCCC [Compound 102, Tetrabutyl 2-[5-(3-hydroxy-4-hydroxymethyl-2-methyl)pyridylmethyl]1,3-propylidenediphosphonate]",Specifically bound [^3 H]-PN-200 110 % of control value,[2],89 % of control value
same,Bound ^3 H at 1.0 μM / Bound ^3 H at 0.1 μM,[2],0.925
CCCCOP(=O)(CC(CCCC1(C)OCCO1)CP(=O)(OCCCC)OCCCC)OCCCC [Compound 106],Specifically bound [^3 H]-PN-200 110 % of control value,[2],42 % of control value
same,Bound ^3 H at 1.0 μM / Bound ^3 H at 0.1 μM,[2],0.570
same,potency in [^3 H]-PN200 110 binding (in words),[2]; text on Table 1b,as potent as Nifedipine
Fc1ccc(C(c2ccc(F)cc2)N2CCN(C/C=C/c3ccccc3)CC2)cc1 [Flunarizine],effect on [^3 H]-Nitrendipine binding (in words),[1],reduce [^3 H]-Nitrendipine binding affinity
"C[C@H](CS)C(=O)N1CCC[C@H]1C(=O)O [Captopril, reference compound]",inhibition in vivo at 1 mg/kg,[3]; [6],0%
"CCOP(=O)(CC(Cc1ccccc1)CP(=O)(OCC)OCC)OCC [Compound 25, Tetraethyl 2-benzyl-1,3-propylidenediphosphonate]",Specifically bound [^3 H]-Nitrendipine % of control value,[4],100 % of control value
same,Bound ^3 H at 1.0 μM / Bound ^3 H at 0.1 μM,[4],1.060
same,activity at 1 µM,[5],53 ± 2.5%
same,activity on KCl-induced trachea contraction (in words),[5]; final concentration 1.0 μM,potent pharmacological activity
same,inhibition in vivo at 0.5 mg/kg,[3]; [6],23.2 ± 2.2%
same,inhibition in vivo at 1.5 mg/kg,[3]; [6],41.4 ± 1%
COc1ccc(CCN(C)CCCC2(c3ccc(OC)c(OC)c3)S(=O)(=O)CCCS2(=O)=O)cc1OC [Tiapamil],effect on [^3 H]-Nitrendipine binding (in words),[1],reduce [^3 H]-Nitrendipine binding affinity
